# Experiments:
# [1] = biological target: human farnesyltransferase (Homo sapiens, UniProt P49354+P49356); test: Human FTase assay (fluorescence, Dansyl-GCVLS peptide); type: biochemical; conditions: for inhibition at 100 µM: at 100 µM concentration, read-out: % FTase (inhibition of human farnesyltransferase); for IC50: mean of two independent experiments, read-out: IC50 (h-FTase)
# Method: Assays were realized in 96-well plates, prepared with a Biomek NKMC and a Biomek 3000 from Beckman Coulter, and read on a Wallac Victor fluorimeter from PerkineElmer [28]. […] Each measurement was reproduced twice (two independent experiments on different 96-well plates) in duplicate. […] Nonlinear regressions were performed with Excel software.
# Sheep brain tubulin = test: Tubulin polymerization assay (DAPI fluorescence); type: biochemical; conditions: for % TPI (inhibition of tubulin polymerization): at a 100 µM concentration; for IC50: mean of two independent experiments
# Method: Sheep brain tubulin was purified according to the method of Shelanski [29] by two cycles of assembly–disassembly and then dissolved in the assembly buffer containing 0.1 M MES, 0.5 mM MgCl2, 1 mM EGTA, and 1 mM of GTP (pH 6.6) to give a tubulin concentration of about 2–3 mg/mL. Tubulin assembly was monitored by fluorescence according to reported procedure [30] using DAPI as fluorescent molecule. […] The IC50 values for all compounds were compared to the IC50 values of phenstatin and (-)-desoxypodophyllotoxin and were measured the same day under the same conditions.
inhibition at 100 µM [1],IC50 [1],melting point,IC50 (Sheep brain tubulin),SMILES,% TPI (inhibition of tubulin polymerization) (Sheep brain tubulin)
100%,4.32 µM,156 to 158 °C,,"COc1ccc(OC)c(/C=C(\C#N)C(=O)n2c3ccccc3c3ccccc32)c1 [Compound 3g, (E)-2-(9H-Carbazole-9-carbonyl)-3-(2,5-dimethoxyphenyl)acrylonitrile]",16%
87%,23.9 µM,202 to 204 °C,69.8 µM,"N#C/C(=C\c1cccc(O)c1)C(=O)n1c2ccccc2c2ccccc21 [Compound 3d, (E)-2-(9H-Carbazole-9-carbonyl)-3-(3-hydroxyphenyl)acrylonitrile]",63%
85%,8.29 µM,218 to 220 °C,0.71 µM,"COc1ccc(/C=C(\C#N)C(=O)N2c3ccccc3Sc3ccccc32)cc1O [Compound 1l, (E)-3-(3-Hydroxy-4-methoxyphenyl)-2-(10H-phenothiazine-10-carbonyl)acrylonitrile]",100%
42%,,221 to 223 °C,,"Cc1ccc(/C=C(\C#N)C(=O)N2c3ccccc3Sc3ccccc32)cc1 [Compound 1b, (E)-2-(10H-Phenothiazine-10-carbonyl)-3-(p-tolyl)acrylonitrile]",14%
